Test results: US20230143604A1, “QW DOSING OF GIP RECEPTOR AGONIST PEPTIDE COMPOUNDS AND USES THEREOF” (TAKEDA PHARMACEUTICAL COMPANY LIMITED, priority 2020, published 2023)
Starred links: 1 amine or outer side, 2 acyl side, 3 side chain; linkers in the order of their positions; H or OH if unused. Non-standard residues stand in square brackets, D forms with d. Residues, ends and D or L forms follow the SMILES beside them. Groups on a side chain read outwards from the residue. *: point of attachment. C18 diacid = O=C(O)CCCCCCCCCCCCCCCCC(=O)*; C17 diacid = O=C(O)CCCCCCCCCCCCCCCC(=O)*; γGlu = O=C(O)[C@H](CCC(=O)[*:2])N[*:1]; NMeY = CN[C@@H](Cc1ccc(O)cc1)C(=O)O; AEEA = NCCOCCOCC(=O)O; Aib = CC(C)(N)C(=O)O

Experiment: physchem
In short: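 3 mg of peptide treated with 100 μL portions of 200 mM phosphate buffer pH 7.4, sonicating/vortexing up to 1 min, with further buffer added until fully dissolved. Solubility then quantified by HPLC.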

Row | Compound | solubility (pH 7.4) [mg/mL] | solubility (pH 7.4, aqueous buffer) [mg/mL] | solubility (pH 7.4, aqueous buffer, pH 7.4 Phosphate Buffer - Solubility, 200 mM Phosphate buffer pH 7.4) [mg/mL] | solubility (pH 7.4, solubility in phosphate buffer at pH 7.4, 200 mM phosphate buffer pH 7.4) [mg/mL]
1 | CC[C@H](C)[C@H](NC(=O)[C@H](CO)NC(=O)[C@H](Cc1ccc(O)cc1)NC(=O)[C@H](CC(=O)O)NC(=O)[C@H](CO)NC(=O)[C@@H](NC(=O)[C@H](Cc1ccccc1)NC(=O)[C@@H](NC(=O)CNC(=O)[C@H](CCC(=O)O)NC(=O)C(C)(C)NC(=O)[C@H](Cc1ccc(O)cc1)NC)[C@@H](C)O)[C@@H](C)CC)C(=O)N[C@@H](C)C(=O)N[C@@H](CC(C)C)C(=O)N[C@@H](CC(=O)O)C(=O)N[C@@H](CCCNC(=N)N)C(=O)NC(C)(C)C(=O)N[C@@H](CCCCNC(=O)COCCOCCNC(=O)COCCOCCNC(=O)CC[C@H](NC(=O)CC[C@H](NC(=O)CCCCCCCCCCCCCCCC(=O)O)C(=O)O)C(=O)O)C(=O)N[C@@H](CCC(N)=O)C(=O)NC(C)(C)C(=O)N[C@@H](CC(N)=O)C(=O)N[C@@H](Cc1ccccc1)C(=O)N[C@H](C(=O)N[C@@H](CC(N)=O)C(=O)N[C@@H](Cc1c[nH]c2ccccc12)C(=O)N[C@@H](CC(C)C)C(=O)N[C@@H](CC(C)C)C(=O)N[C@@H](C)C(=O)N[C@@H](CCC(N)=O)C(=O)N[C@@H](CO)C(=O)NCC(=O)NCC(=O)NCC(=O)NCC(=O)N[C@@H](CO)C(N)=O)C(C)C [Compound 31] (H-[NMeY][Aib]EGTFISDYSIALDR[Aib]K([AEEA-AEEA-γGlu-γGlu-C17 diacid])Q[Aib]NFVNWLLAQSGGGGS-NH2) | ≥ 15 | ≥ 30 | – | –
2 | CC[C@H](C)[C@H](NC(=O)[C@H](CO)NC(=O)[C@H](Cc1ccc(O)cc1)NC(=O)[C@H](CC(=O)O)NC(=O)[C@H](CO)NC(=O)[C@@H](NC(=O)[C@H](Cc1ccccc1)NC(=O)[C@@H](NC(=O)CNC(=O)[C@H](CCC(=O)O)NC(=O)C(C)(C)NC(=O)[C@H](Cc1ccc(O)cc1)NC)[C@@H](C)O)[C@@H](C)CC)C(=O)N[C@@H](C)C(=O)N[C@@H](CCCCNC(=O)COCCOCCNC(=O)COCCOCCNC(=O)CC[C@H](NC(=O)CCCCCCCCCCCCCCCCC(=O)O)C(=O)O)C(=O)N[C@@H](CC(=O)O)C(=O)N[C@@H](CCCNC(=N)N)C(=O)NC(C)(C)C(=O)N[C@@H](C)C(=O)N[C@@H](CCC(N)=O)C(=O)N[C@@H](CCC(N)=O)C(=O)N[C@@H](CC(N)=O)C(=O)N[C@@H](Cc1ccccc1)C(=O)N[C@H](C(=O)N[C@@H](CC(N)=O)C(=O)N[C@@H](Cc1c[nH]c2ccccc12)C(=O)N[C@@H](CC(C)C)C(=O)N[C@@H](CC(C)C)C(=O)N[C@@H](C)C(=O)N[C@@H](CCC(N)=O)C(=O)N[C@@H](CCCNC(=N)N)C(N)=O)C(C)C [Compound 253] (H-[NMeY][Aib]EGTFISDYSIAK([AEEA-AEEA-γGlu-C18 diacid])DR[Aib]AQQNFVNWLLAQR-NH2) | – | ≥ 7.4 | – | –
3 | CC[C@H](C)[C@H](NC(=O)[C@H](Cc1ccccc1)NC(=O)[C@@H](NC(=O)CNC(=O)[C@H](CCC(=O)O)NC(=O)C(C)(C)NC(=O)[C@H](Cc1ccc(O)cc1)NC)[C@@H](C)O)C(=O)N[C@@H](CO)C(=O)N[C@@H](CC(=O)O)C(=O)N[C@@H](Cc1ccc(O)cc1)C(=O)N[C@@H](CO)C(=O)N[C@H](C(=O)NC(C)(C)C(=O)N[C@@H](CC(C)C)C(=O)N[C@@H](CC(=O)O)C(=O)N[C@@H](CCCNC(=N)N)C(=O)NC(C)(C)C(=O)N[C@@H](C)C(=O)N[C@@H](CCC(N)=O)C(=O)NC(C)(C)C(=O)N[C@@H](CCCCNC(=O)COCCOCCNC(=O)COCCOCCNC(=O)CC[C@H](NC(=O)CC[C@H](NC(=O)CCCCCCCCCCCCCCCCC(=O)O)C(=O)O)C(=O)O)C(=O)N[C@@H](Cc1ccccc1)C(=O)N[C@H](C(=O)N[C@@H](CC(N)=O)C(=O)N[C@@H](Cc1c[nH]c2ccccc12)C(=O)N[C@@H](CC(C)C)C(=O)N[C@@H](CC(C)C)C(=O)N[C@@H](C)C(=O)N[C@@H](CCC(N)=O)C(=O)N[C@@H](CO)C(=O)N1CCC[C@H]1C(=O)N[C@@H](CO)C(=O)N[C@@H](CO)C(=O)NCC(=O)N[C@@H](C)C(=O)N1CCC[C@H]1C(=O)N1CCC[C@H]1C(=O)N1CCC[C@H]1C(=O)N[C@@H](CO)C(N)=O)C(C)C)[C@@H](C)CC [Compound 90] (H-[NMeY][Aib]EGTFISDYSI[Aib]LDR[Aib]AQ[Aib]K([AEEA-AEEA-γGlu-γGlu-C18 diacid])FVNWLLAQSPSSGAPPPS-NH2) | – | – | ≥ 60 | ≥ 15
4 | CC[C@H](C)[C@H](NC(=O)[C@H](CO)NC(=O)[C@H](Cc1ccc(O)cc1)NC(=O)[C@H](CC(=O)O)NC(=O)[C@H](CO)NC(=O)[C@@H](NC(=O)[C@H](Cc1ccccc1)NC(=O)[C@@H](NC(=O)CNC(=O)[C@H](CCC(=O)O)NC(=O)C(C)(C)NC(=O)[C@H](Cc1ccc(O)cc1)NC)[C@@H](C)O)[C@@H](C)CC)C(=O)N[C@@H](C)C(=O)N[C@@H](CCCCNC(=O)COCCOCCNC(=O)COCCOCCNC(=O)CC[C@H](NC(=O)CCCCCCCCCCCCCCCC(=O)O)C(=O)O)C(=O)N[C@@H](CC(=O)O)C(=O)N[C@@H](CCCNC(=N)N)C(=O)NC(C)(C)C(=O)N[C@@H](C)C(=O)N[C@@H](CCC(N)=O)C(=O)NC(C)(C)C(=O)N[C@@H](CC(N)=O)C(=O)N[C@@H](Cc1ccccc1)C(=O)N[C@H](C(=O)N[C@@H](CC(N)=O)C(=O)N[C@@H](Cc1c[nH]c2ccccc12)C(=O)N[C@@H](CC(C)C)C(=O)N[C@@H](CC(C)C)C(=O)N[C@@H](C)C(=O)N[C@@H](CCC(N)=O)C(=O)N[C@@H](CCCCN)C(=O)O)C(C)C [Compound 255] (H-[NMeY][Aib]EGTFISDYSIAK([AEEA-AEEA-γGlu-C17 diacid])DR[Aib]AQ[Aib]NFVNWLLAQK-OH; C-terminus assumed) | – | ≥ 10 | – | –
5 | CC[C@H](C)[C@H](NC(=O)[C@H](CO)NC(=O)[C@H](Cc1ccc(O)cc1)NC(=O)[C@H](CC(=O)O)NC(=O)[C@H](CO)NC(=O)[C@@H](NC(=O)[C@H](Cc1ccccc1)NC(=O)[C@@H](NC(=O)CNC(=O)[C@H](CCC(=O)O)NC(=O)C(C)(C)NC(=O)[C@H](Cc1ccc(O)cc1)NC)[C@@H](C)O)[C@@H](C)CC)C(=O)N[C@@H](C)C(=O)N[C@@H](CC(C)C)C(=O)N[C@@H](CC(=O)O)C(=O)N[C@@H](CCCNC(=N)N)C(=O)NC(C)(C)C(=O)N[C@@H](C)C(=O)N[C@@H](CCC(N)=O)C(=O)NC(C)(C)C(=O)N[C@@H](CCCCNC(=O)COCCOCCNC(=O)COCCOCCNC(=O)CC[C@H](NC(=O)CC[C@H](NC(=O)CCCCCCCCCCCCCCCC(=O)O)C(=O)O)C(=O)O)C(=O)N[C@@H](Cc1ccccc1)C(=O)N[C@H](C(=O)N[C@@H](CC(N)=O)C(=O)N[C@@H](Cc1c[nH]c2ccccc12)C(=O)N[C@@H](CC(C)C)C(=O)N[C@@H](CC(C)C)C(=O)N[C@@H](C)C(=O)N[C@@H](CCC(N)=O)C(=O)N[C@@H](CO)C(=O)N1CCC[C@H]1C(=O)NCC(=O)O)C(C)C [Compound 125] (H-[NMeY][Aib]EGTFISDYSIALDR[Aib]AQ[Aib]K([AEEA-AEEA-γGlu-γGlu-C17 diacid])FVNWLLAQSPG-OH) | ≥ 15 | ≥ 30 | – | –
6 | CC[C@H](C)[C@H](NC(=O)[C@H](CO)NC(=O)[C@H](Cc1ccc(O)cc1)NC(=O)[C@H](CC(=O)O)NC(=O)[C@H](CO)NC(=O)[C@@H](NC(=O)[C@H](Cc1ccccc1)NC(=O)[C@@H](NC(=O)CNC(=O)[C@H](CCC(=O)O)NC(=O)C(C)(C)NC(=O)[C@H](Cc1ccc(O)cc1)NC)[C@@H](C)O)[C@@H](C)CC)C(=O)N[C@@H](C)C(=O)N[C@@H](CC(C)C)C(=O)N[C@@H](CC(=O)O)C(=O)N[C@@H](CCCNC(=N)N)C(=O)N[C@@H](C)C(=O)N[C@@H](C)C(=O)N[C@@H](CCC(N)=O)C(=O)N[C@@H](CCC(N)=O)C(=O)N[C@@H](CCCCNC(=O)COCCOCCNC(=O)COCCOCCNC(=O)CC[C@H](NC(=O)CC[C@H](NC(=O)CCCCCCCCCCCCCCCCC(=O)O)C(=O)O)C(=O)O)C(=O)N[C@@H](Cc1ccccc1)C(=O)N[C@H](C(=O)N[C@@H](CC(N)=O)C(=O)N[C@@H](Cc1c[nH]c2ccccc12)C(=O)N[C@@H](CC(C)C)C(=O)N[C@@H](CC(C)C)C(=O)N[C@@H](C)C(=O)N[C@@H](CCC(N)=O)C(=O)N[C@@H](CO)C(=O)N1CCC[C@H]1C(=O)NCC(=O)O)C(C)C [Compound 178] (H-[NMeY][Aib]EGTFISDYSIALDRAAQQK([AEEA-AEEA-γGlu-γGlu-C18 diacid])FVNWLLAQSPG-OH) | ≥ 15 | ≥ 30 | – | –
7 | CC[C@H](C)[C@H](NC(=O)[C@H](CO)NC(=O)[C@H](Cc1ccc(O)cc1)NC(=O)[C@H](CC(=O)O)NC(=O)[C@H](CO)NC(=O)[C@@H](NC(=O)[C@H](Cc1ccccc1)NC(=O)[C@@H](NC(=O)CNC(=O)[C@H](CCC(=O)O)NC(=O)C(C)(C)NC(=O)[C@H](Cc1ccc(O)cc1)NC)[C@@H](C)O)[C@@H](C)CC)C(=O)N[C@@H](C)C(=O)N[C@@H](CC(C)C)C(=O)N[C@@H](CC(=O)O)C(=O)N[C@@H](CCCNC(=N)N)C(=O)NC(C)(C)C(=O)N[C@@H](C)C(=O)N[C@@H](CCC(N)=O)C(=O)NC(C)(C)C(=O)N[C@@H](CCCCNC(=O)COCCOCCNC(=O)COCCOCCNC(=O)CC[C@H](NC(=O)CC[C@H](NC(=O)CCCCCCCCCCCCCCCC(=O)O)C(=O)O)C(=O)O)C(=O)N[C@@H](Cc1ccccc1)C(=O)N[C@H](C(=O)N[C@@H](CC(N)=O)C(=O)N[C@@H](Cc1c[nH]c2ccccc12)C(=O)N[C@@H](CC(C)C)C(=O)N[C@@H](CC(C)C)C(=O)N[C@@H](C)C(=O)N[C@@H](CCC(N)=O)C(=O)N[C@@H](CCCNC(=N)N)C(=O)NCC(=O)NCC(=O)NCC(=O)NCC(=O)N[C@@H](CO)C(N)=O)C(C)C [Compound 30] (H-[NMeY][Aib]EGTFISDYSIALDR[Aib]AQ[Aib]K([AEEA-AEEA-γGlu-γGlu-C17 diacid])FVNWLLAQRGGGGS-NH2) | ≥ 15 | ≥ 30 | – | –
